Laboratory results reported in patent EP4417602A1, “SUBSTITUTED PYRAZOLE CARBOXAMIDES, SALTS THEREOF AND THEIR USE AS HERBICIDALLY ACTIVE SUBSTANCES” (Bayer AG, priority 2023, dated 2024).

How the values were obtained:
[1] = test system: ALOMY; test: B. Herbicidal post-emergence action on harmful plants (Tables B); type: in vivo, Alopecurus myosuroides; conditions: application rate 1280 g/ha; Table B9a
Method: (§1) Seeds of mono- and dicotyledonous weed plants were placed in plastic pots in sandy loam soil (doubly sown with in each case one species of mono- or dicotyledonous weed plants per pot), covered with soil and cultivated in a greenhouse under controlled growth conditions. 2 to 3 weeks after sowing, the test plants were treated at the one-leaf stage. The compounds of the invention, formulated in the form of wettable powders (WP) or as emulsion concentrates (EC), were applied onto the green parts of the plants as aqueous suspension or emulsion with addition of 0.5% additive at a water application rate of 600 liters per hectare (converted). After the test plants had been kept in the greenhouse under optimum growth conditions for about 3 weeks, the activity of the preparations was rated visually in comparison to untreated controls. For example, 100% activity = the plants have died, 0% activity = like control plants. Tables B1 to B12, below, show the effects of selected compounds of the general formula (I) according to table 1 on various harmful plants and an application rate corresponding to 1280 g/ha or below obtained by the experimental procedure mentioned above. Table B1a: post-emergence activity at 1280g/ha against ABUTH in %

[2] = test system: ALOMY; test: A. Herbicidal pre-emergence action on harmful plants (Tables A); type: in vivo, Alopecurus myosuroides
Summary of the method: (§2)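 Greenhouse pre-emergence test: compound applied to the soil surface at 1280 g/ha or below, and herbicidal effect rated visually at ca. 3 weeks on a 0–100% scale against untreated plants.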

[3] = test system: STEME; test: as above; type: in vivo, Stellaria media; conditions: visual grading after ca. 3 weeks vs untreated controls, 100% = plants have died off, 0% = as control plants
Summary of the method: as §2

[4] = test system: ECHCG; test: B. Herbicidal post-emergence action on harmful plants (Tables B); type: in vivo, Echinochloa crus-galli; conditions: application rate 1280 g/ha; Table B2a
Method: as §1

[5] = test system: DIGSA; test: A. Herbicidal pre-emergence action on harmful plants (Tables A); type: in vivo, Digitaria sanguinalis
Summary of the method: as §2

[6] = test system: VERPE; test: B. Herbicidal post-emergence action on harmful plants (Tables B); type: in vivo, Veronica persica
Method: as §1

[7] = test system: ABUTH; test: as above; type: in vivo, Abutilon theophrasti; conditions: application rate 1280 g/ha; Table B1a
Method: as §1

[8] = test system: POAAN; test: A. Herbicidal pre-emergence action on harmful plants (Tables A); type: in vivo, Poa annua
Summary of the method: as §2

[9] = test system: SETVI; test: as above; type: in vivo, Setaria viridis; conditions: visual grading after ca. 3 weeks vs untreated controls, 100% = plants have died off, 0% = as control plants
Summary of the method: as §2

[10] = test system: SETVI; test: B. Herbicidal post-emergence action on harmful plants (Tables B); type: in vivo, Setaria viridis; conditions: application rate 1280 g/ha; Table B5
Method: as §1

[11] = test system: MATIN; test: A. Herbicidal pre-emergence action on harmful plants (Tables A); type: in vivo, Matricaria inodora; conditions: visual grading after ca. 3 weeks vs untreated controls, 100% = plants have died off, 0% = as control plants
Summary of the method: as §2

[12] = test system: ECHCG; test: as above; type: in vivo, Echinochloa crus-galli; conditions: visual grading after ca. 3 weeks vs untreated controls, 100% = plants have died off, 0% = as control plants
Summary of the method: as §2

[13] = test system: LOLRI; test: as above; type: in vivo, Lolium rigidum; conditions: visual grading after ca. 3 weeks vs untreated controls, 100% = plants have died off, 0% = as control plants
Summary of the method: as §2

[14] = test system: POAAN; test: B. Herbicidal post-emergence action on harmful plants (Tables B); type: in vivo, Poa annua
Summary of the method: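 Activity was scored visually as % damage (100% = dead, 0% = like untreated) about 3 weeks after treatment. Plants at the one-leaf stage, 2-3 weeks old, were sprayed with WP/EC formulations plus 0.5% additive (600 L/ha water, up to 1280 g/ha). Plants were grown in sandy loam in a greenhouse.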

[15] = test system: MATIN; test: as above; type: in vivo, Matricaria inodora; conditions: application rate 1280 g/ha; Table B4a
Method: as §1

[16] = test system: DIGSA; test: as above; type: in vivo, Digitaria sanguinalis; conditions: application rate 1280 g/ha; Table B12a
Method: as §1

[17] = test system: AMARE; test: A. Herbicidal pre-emergence action on harmful plants (Tables A); type: in vivo, Amaranthus retroflexus
From the text: Seeds of mono- and dicotyledonous weed plants were sown in plastic pots (double sowings with one species of mono- and one species of dicotyledonous weed plants per pot), in sandy loam, and covered with soil. The compounds according to the invention, formulated in the form of wettable powders (WP) or as emulsifiable concentrates (EC), were applied to the surface of the covering soil as aqueous suspension or emulsion, with the addition of 0.5% of an additive, at an application rate of 6001 of water per hectare (converted). Following treatment, the pots were placed in a greenhouse and kept under optimum growth conditions for the test plants. The visual grading of the damage to the test plants was carried out after ca. 3 weeks in comparison to untreated controls (herbicidal effect in percent (%): 100% effect = plants have died off, 0% effect = as control plants). Tables A1 to A12, below, show the effects of selected compounds of the general formula (I) according to table 1 on various harmful plants and an application rate corresponding to 1280 g/ha or below obtained by the experimental procedure mentioned above. Table A1: pre-emergence activity at 1280g/ha against ABUTH in %

[18] = test system: STEME; test: B. Herbicidal post-emergence action on harmful plants (Tables B); type: in vivo, Stellaria media; conditions: application rate 1280 g/ha; Table B6
Method: as §1

[19] = application rate 1280 g/ha, Table A9a
[20] = application rate 1280 g/ha, Table A12a
[21] = application rate 1280 g/ha, Table B11a
[22] = application rate 320 g/ha, Table A7b
[23] = application rate 1280 g/ha, visual grading after ca. 3 weeks vs untreated controls, 100% = plants have died off, 0% = as control plants
[24] = application rate 320 g/ha, Table A12b
[25] = application rate 80 g/ha, Table A7c
[26] = application rate 1280 g/ha, Table B7a
[27] = application rate 80 g/ha, Table A12c

Structure (SMILES): Cn1cc(C(=O)N2CCCC2Cc2cc(F)ccc2F)c(COc2ccccc2)n1 (racemic) [Example I-010]
- post-emergence activity against ALOMY [1]: 90%
- pre-emergence activity against ALOMY [2, 19]: 100%
- pre-emergence activity against STEME ([3]; application rate 1280 g/ha): 90%
- post-emergence activity against ECHCG [4]: 90%
- pre-emergence activity against DIGSA [5, 20]: 90%
- post-emergence activity against VERPE [6, 21]: 90%
- post-emergence activity against ABUTH [7]: 90%
- pre-emergence activity against POAAN [8, 22]: 90%
- pre-emergence activity against POAAN [8, 23]: 100%

Structure (SMILES): COCc1nn(C)cc1C(=O)N1CCCC1C(O)c1ccccc1F (single isomer, unassigned) [Example I-054]
- pre-emergence activity against SETVI ([9]; application rate 320 g/ha): 90%
- pre-emergence activity against SETVI ([9]; application rate 1280 g/ha): 90%
- post-emergence activity against SETVI [10]: 90%
- pre-emergence activity against STEME ([3]; application rate 320 g/ha): 90%
- pre-emergence activity against STEME ([3]; application rate 1280 g/ha): 90%
- pre-emergence activity against MATIN ([11]; application rate 320 g/ha): 90%
- pre-emergence activity against MATIN ([11]; application rate 1280 g/ha): 90%
- pre-emergence activity against ECHCG ([12]; application rate 320 g/ha): 90%
- pre-emergence activity against ECHCG ([12]; application rate 1280 g/ha): 100%
- pre-emergence activity against DIGSA [5, 24]: 90%
- pre-emergence activity against DIGSA [5, 20]: 100%
- pre-emergence activity against LOLRI ([13]; application rate 1280 g/ha): 90%
- pre-emergence activity against POAAN [8, 25]: 90%
- pre-emergence activity against POAAN [8, 22]: 90%
- pre-emergence activity against POAAN [8, 23]: 100%
- post-emergence activity against POAAN [14, 26]: 90%

Structure (SMILES): COCc1nn(C)cc1C(=O)N1CCCC1Cc1ccccc1C (single isomer, unassigned) [Example I-084]
- pre-emergence activity against ALOMY [2, 19]: 90%
- pre-emergence activity against SETVI ([9]; application rate 80 g/ha): 90%
- pre-emergence activity against SETVI ([9]; application rate 320 g/ha): 90%
- pre-emergence activity against SETVI ([9]; application rate 1280 g/ha): 100%
- post-emergence activity against MATIN [15]: 90%
- post-emergence activity against DIGSA [16]: 90%
- pre-emergence activity against STEME ([3]; application rate 320 g/ha): 90%
- pre-emergence activity against STEME ([3]; application rate 1280 g/ha): 90%
- pre-emergence activity against AMARE ([17]; application rate 320 g/ha, Table A8b): 90%
- pre-emergence activity against AMARE [17, 23]: 90%
- pre-emergence activity against MATIN ([11]; application rate 80 g/ha): 90%
- pre-emergence activity against MATIN ([11]; application rate 320 g/ha): 90%
- pre-emergence activity against MATIN ([11]; application rate 1280 g/ha): 90%
- post-emergence activity against ECHCG [4]: 90%
- pre-emergence activity against ECHCG ([12]; application rate 80 g/ha): 90%
- pre-emergence activity against ECHCG ([12]; application rate 320 g/ha): 90%
- pre-emergence activity against ECHCG ([12]; application rate 1280 g/ha): 90%
- post-emergence activity against STEME [18]: 90%
- pre-emergence activity against DIGSA [5, 27]: 90%
- pre-emergence activity against DIGSA [5, 24]: 90%
- pre-emergence activity against DIGSA [5, 20]: 90%
- pre-emergence activity against LOLRI ([13]; application rate 320 g/ha): 90%
- pre-emergence activity against LOLRI ([13]; application rate 1280 g/ha): 100%
- post-emergence activity against VERPE ([6]; application rate 320 g/ha, Table B11b): 90%
- post-emergence activity against VERPE [6, 21]: 90%
- post-emergence activity against ABUTH [7]: 90%
- pre-emergence activity against POAAN [8, 25]: 100%
- pre-emergence activity against POAAN [8, 22]: 100%
- pre-emergence activity against POAAN [8, 23]: 100%
- post-emergence activity against POAAN ([14]; application rate 320 g/ha, Table B7b): 100%
- post-emergence activity against POAAN [14, 26]: 100%

Structure (SMILES): COCc1nn(C)cc1C(=O)N1CCCC1Cc1cccc(F)c1F (single isomer, unassigned) [Example I-088]
- pre-emergence activity against ALOMY ([2]; application rate 320 g/ha, Table A9b): 90%
- pre-emergence activity against ALOMY [2, 19]: 100%
- pre-emergence activity against SETVI ([9]; application rate 80 g/ha): 90%
- pre-emergence activity against SETVI ([9]; application rate 320 g/ha): 100%
- pre-emergence activity against SETVI ([9]; application rate 1280 g/ha): 100%
- post-emergence activity against SETVI [10]: 90%
- post-emergence activity against MATIN [15]: 90%
- post-emergence activity against DIGSA [16]: 90%
- pre-emergence activity against STEME ([3]; application rate 80 g/ha): 90%
- pre-emergence activity against STEME ([3]; application rate 320 g/ha): 90%
- pre-emergence activity against STEME ([3]; application rate 1280 g/ha): 90%
- pre-emergence activity against MATIN ([11]; application rate 80 g/ha): 90%
- pre-emergence activity against MATIN ([11]; application rate 320 g/ha): 90%
- pre-emergence activity against MATIN ([11]; application rate 1280 g/ha): 90%
- pre-emergence activity against ECHCG ([12]; application rate 80 g/ha): 90%
- pre-emergence activity against ECHCG ([12]; application rate 320 g/ha): 90%
- pre-emergence activity against ECHCG ([12]; application rate 1280 g/ha): 100%
- pre-emergence activity against DIGSA [5, 27]: 100%
- pre-emergence activity against DIGSA [5, 24]: 100%
- pre-emergence activity against DIGSA [5, 20]: 100%
- pre-emergence activity against LOLRI ([13]; application rate 80 g/ha): 90%
- pre-emergence activity against LOLRI ([13]; application rate 320 g/ha): 100%
- pre-emergence activity against LOLRI ([13]; application rate 1280 g/ha): 100%
- pre-emergence activity against POAAN [8, 25]: 90%
- pre-emergence activity against POAAN [8, 22]: 100%
- pre-emergence activity against POAAN [8, 23]: 100%
- post-emergence activity against POAAN [14, 26]: 90%

Structure (SMILES): COCc1nn(C)cc1C(=O)N1CCCC1C(C)c1ccccc1F (centres unmarked) [Example I-021]
- pre-emergence activity against ALOMY [2, 19]: 90%
- pre-emergence activity against SETVI ([9]; application rate 320 g/ha): 100%
- pre-emergence activity against SETVI ([9]; application rate 1280 g/ha): 100%
- post-emergence activity against SETVI [10]: 90%
- post-emergence activity against MATIN [15]: 90%
- pre-emergence activity against MATIN ([11]; application rate 1280 g/ha): 90%
- post-emergence activity against ECHCG [4]: 90%
- pre-emergence activity against ECHCG ([12]; application rate 1280 g/ha): 100%
- pre-emergence activity against DIGSA [5, 24]: 90%
- pre-emergence activity against DIGSA [5, 20]: 100%
- pre-emergence activity against LOLRI ([13]; application rate 320 g/ha): 100%
- pre-emergence activity against LOLRI ([13]; application rate 1280 g/ha): 100%
- pre-emergence activity against POAAN [8, 22]: 100%
- pre-emergence activity against POAAN [8, 23]: 100%
- post-emergence activity against POAAN [14, 26]: 90%
